Among the data in patent US20210024545A1, “SUBSTITUTED DIAZAHETERO-BICYCLIC COMPOUNDS AND THEIR USE” (Bayer Aktiengesellschaft, priority 2016, published 2021) are IC50 values, retold here.

Structures are written as SMILES.

The target of assay [1] is human TASK-1 (Homo sapiens, UniProt O14649). Kind of assay: Inhibition of recombinant TASK-1 in stably transfected CHO cells, KCl-induced depolarization, voltage-sensitive dye (B-2). The class given is cell-based. To be noted: depolarization induced by 40 mM potassium chloride, some mean values from multiple determinations. Also on record: expressed in transfected cells; host or cells: stably transfected CHO cells. How it is done: (§1) B-2. Inhibition of Recombinant TASK-1 and TASK-3 In Vitro
Chain of human TASK-1 (O14649 whole entry): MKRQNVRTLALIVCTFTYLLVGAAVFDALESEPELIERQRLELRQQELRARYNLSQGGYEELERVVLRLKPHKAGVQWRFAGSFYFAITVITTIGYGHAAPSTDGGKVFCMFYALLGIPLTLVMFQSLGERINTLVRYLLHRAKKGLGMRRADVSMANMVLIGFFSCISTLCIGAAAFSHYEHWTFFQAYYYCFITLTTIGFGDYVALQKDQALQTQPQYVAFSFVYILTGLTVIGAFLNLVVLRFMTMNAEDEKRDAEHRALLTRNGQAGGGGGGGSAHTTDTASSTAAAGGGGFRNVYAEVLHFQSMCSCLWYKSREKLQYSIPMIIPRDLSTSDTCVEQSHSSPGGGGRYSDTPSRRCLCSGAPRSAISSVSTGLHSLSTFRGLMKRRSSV
(§2) The investigations on the inhibition of the recombinant TASK-1 and TASK-3 channels were conducted using stably transfected CHO cells. The compounds of the invention were tested here with administration of 40 mM of potassium chloride in the presence of a voltage-sensitive dye using the method described in detail in the following references [Whiteaker et al., Validation of FLIPR membrane potential dye for high-throughput screening of potassium channel modulators, J. Biomol. Screen. 6 (5), 305-312 (2001); Molecular Devices FLIPR Application Note: Measuring membrane potential using the FLIPR® membrane potential assay kit on Fluorometric Imaging Plate Reader (FLIPR®) systems, http://www.moleculardevices.com/reagents-supplies/assay-kits/ion-channels/flipr-membrane-potential-assay-kits]. The activity of the test substances was determined as their ability to inhibit a depolarization induced in the recombinant cells by 40 mM potassium chloride. The concentration which can block half of this depolarization is referred to as IC50).
(§3) Table 2 below lists the IC50 values from this assay determined for individual working examples of the invention (some as mean values from multiple independent individual determinations): […]

The target of assay [2] is human TASK-3 (Homo sapiens, UniProt Q9NPC2). Kind of assay: Inhibition of recombinant TASK-3 in stably transfected CHO cells, KCl-induced depolarization, voltage-sensitive dye (B-2). Also on record: expressed in transfected cells; host or cells: stably transfected CHO cells. The class given is cell-based. To be noted: depolarization induced by 40 mM potassium chloride, some mean values from multiple determinations. How it is done: as §1, §2, §3
Chain of human TASK-3 (Q9NPC2 whole entry): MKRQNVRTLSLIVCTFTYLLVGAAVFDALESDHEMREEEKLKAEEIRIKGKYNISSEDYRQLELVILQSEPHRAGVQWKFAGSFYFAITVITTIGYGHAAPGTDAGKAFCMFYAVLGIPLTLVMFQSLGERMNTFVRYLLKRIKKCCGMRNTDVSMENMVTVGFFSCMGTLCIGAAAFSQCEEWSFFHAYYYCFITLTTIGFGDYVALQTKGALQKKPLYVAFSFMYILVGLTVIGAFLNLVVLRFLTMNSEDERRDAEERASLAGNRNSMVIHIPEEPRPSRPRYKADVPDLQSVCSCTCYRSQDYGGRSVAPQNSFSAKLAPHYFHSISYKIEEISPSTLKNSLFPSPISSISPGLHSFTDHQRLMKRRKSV

The IC50 is the concentration that gives 50% inhibition. Turning to `CC(C)(C)OC(=O)N1C2CCC1CN(Cc1c(-c3ccc(Cl)cn3)nc3ccccn13)C2` [Example 14], the IC50 in assay [1] came to 5100 nM; in assay [2] it was 860 nM.
In the case of `COc1ccccc1C(=O)N1CC2CCC1CN2Cc1c(-c2ccc(Cl)cc2)nc2ccccn12` (single isomer, unassigned) [Example 44], the IC50 turned out to be 130 nM in assay [1] and 3.3 nM in assay [2].
With `CC(C)(C)OC(=O)N1CC2CCC(C1)N2Cc1c(-c2ccc(Cl)cc2)nc2ccccn12` [Example 6], the IC50 in assay [1] was 394 nM; in assay [2], 410 nM.
With `O=C(Nc1ccccc1Cl)N1C2CCC1CN(Cc1c(-c3ccc(Cl)cc3)nc3ccccn13)C2` [Example 171, N-(2-Chlorophenyl)-3-{[2-(4-chlorophenyl)imidazo[1,2-a]pyridin-3-yl]methyl}-3,8-diazabicyclo[3.2.1]octane-8-carboxamide], the figures for the IC50 in assay [1] and in assay [2] were 1800 nM and 26 nM, respectively.
Regarding `CC(C)c1ccc(-c2nc3ccccn3c2CN2CC3CCC2CN3C(=O)C2CCCC2)cc1` (single isomer, unassigned) [Example 62], the concentration for half-maximal inhibition (IC50) in assay [1] worked out at 2800 nM; in assay [2], 760 nM.
For `O=C(N1CCCC1)N1C2COCC1CN(Cc1c(-c3ccc(Cl)cc3)nc3ccccn13)C2` [Example 192, (7-{[2-(4-Chlorophenyl)imidazo[1,2-a]pyridin-3-yl]methyl}-3-oxa-7,9-diazabicyclo[3.3.l]non-9-yl)(pyrrolidin-1-yl)methanone], in that order: 870 nM and 73 nM.
Consider `O=C(N1CCOCC1)N1C2COCC1CN(Cc1c(-c3ccc(Cl)cc3)nc3ccccn13)C2` [Example 189, (7-{[2-(4-Chlorophenyl)imidazo[1,2-a]pyridin-3-yl]methyl}-3-oxa-7,9-diazabicyclo[3.3.1]non-9-yl)(morpholin-4-yl)methanone], for which the figures for the IC50 in assay [1] and in assay [2] were 8300 nM and 520 nM, respectively.
As to `O=C(C1CCC1)N1C2CC1CN(Cc1c(-c3ccc(Cl)cc3)nc3ccccn13)C2` [Example 121], the IC50 in assay [1] was 1700 nM; in assay [2], 2800 nM.
For `CC(C)NC(=O)N1C2CCC1CN(Cc1c(-c3ccc(Cl)cc3)nc3ccccn13)C2` [Example 154, 3-{[2-(4-Chlorophenyl)imidazo[1,2-a]pyridin-3-yl]methyl}-N-isopropyl-3,8-diazabicyclo[3.2.1]octane-8-carboxamide], in that order: 130 nM and 29 nM.
`O=C(c1ccccc1F)N1C2COCC1CN(Cc1c(-c3ccc(Cl)cc3)nc3ccccn13)C2` [Example 69]: the IC50 in assay [1] was 870 nM; in assay [2] it was 101 nM.
For `Cc1ccc(NC(=O)N2C3CCC2CN(Cc2c(-c4ccc(Cl)cc4)nc4ccccn24)C3)c(C)c1` [Example 167, 3-{[2-(4-Chlorophenyl)imidazo[1,2-a]pyridin-3-yl]methyl}-N-(2,4-dimethylphenyl)-3,8-diazabicyclo[3.2.1]octane-8-carboxamide], in that order: 3000 nM and 350 nM.
In the case of `O=C(c1ccncc1)N1CC2CCC1CN2Cc1c(-c2ccc(Cl)cc2)nc2ccccn12` (single isomer, unassigned) [Example 55], the IC50 in assay [1] was 2000 nM; in assay [2] it was 320 nM.
Turning to `COc1cccc(C(=O)N2C3CCC2CN(Cc2c(-c4ccc(Br)cc4)nc4ccccn24)C3)n1` [Example 98], the values for the IC50 in assay [1] and in assay [2] were 450 nM and 14 nM, respectively.
As to `O=C(Nc1cc(C(F)(F)F)ccc1Cl)N1C2CCC1CN(Cc1c(-c3ccc(Cl)cc3)nc3ccccn13)C2` [Example 160, 3-{[2-(4-Chlorophenyl)imidazo[1,2-a]pyridin-3-yl]methyl}-N-[2-chloro-5-(trifluoromethyl)phenyl]-3,8-diazabicyclo[3.2.1]octane-8-carboxamide], the IC50 in assay [1] was found to be 7600 nM; in assay [2] it was 1000 nM.
As for `O=C(NC1CC1)N1C2CCC1CN(Cc1c(-c3ccc(Cl)cc3)nc3ccccn13)C2` [Example 170, 3-{[2-(4-Chlorophenyl)imidazo[1,2-a]pyridin-3-yl]methyl}-N-cyclopropyl-3,8-diazabicyclo[3.2.1]octane-8-carboxamide], the results for the IC50 in assay [1] and in assay [2] were 1200 nM and 64 nM, respectively.
Take `COc1ccc(Cl)c(C(=O)N2CC3CCC2CN3Cc2c(-c3ccc(Br)cc3)nc3ccccn23)n1` (racemic) [Example 199, (5-{[2-(4-Bromophenyl)imidazo[1,2-a]pyridin-3-yl]methyl}-2,5-diazabicyclo[2.2.2]oct-2-yl)(3-chlor-6-methoxypyridin-2-yl)methanone(racemate)]: the IC50 in assay [1] worked out at 33 nM; in assay [2], 1.8 nM.
Consider `O=C(C1CCCC1)N1C2COCC1CN(Cc1c(-c3ccc(Cl)cc3)nc3ccccn13)C2` [Example 71], for which the IC50 in assay [1] came out at 130 nM; in assay [2], 24 nM.
For `CCN(C(=O)N1C2CCC1CN(Cc1c(-c3ccc(Cl)cc3)nc3ccccn13)C2)c1ccc(C)cc1` [Example 181, 3-{[2-(4-Chlorophenyl)imidazo[1,2-a]pyridin-3-yl]methyl}-N-ethyl-N-(4-methylphenyl)-3,8-diazabicyclo[3.2.1]octane-8-carboxamide] the same measures were 4100 nM and 1000 nM.
Regarding `O=C(c1cccc(Cl)c1)N1CC2CCC1CN2Cc1c(-c2ccc(Cl)cc2)nc2ccccn12` (single isomer, unassigned) [Example 49], the results for the IC50 in assay [1] and in assay [2] were 740 nM and 12 nM, respectively.
As to `O=C(N1CCCC1)N1C2CCC1CN(Cc1c(-c3ccc(Cl)cc3)nc3ccccn13)C2` [Example 176, (3-([2-(4-Chlorophenyl)imidazo[1,2-a]pyridin-3-yl]methyl}-3,8-diazabicyclo[3.2.1]oct-8-yl)(pyrrolidin-1-yl)methanone], the IC50 in assay [1] amounted to 49 nM; in assay [2], 10 nM.
As to `COc1ccc(F)c(C(=O)N2CC3CCC2CN3Cc2c(-c3ccc(Cl)cn3)nc3ccccn23)n1` (single isomer, unassigned) [Example 66], the IC50 turned out to be 1100 nM in assay [1] and 110 nM in assay [2].
For `COc1ccccc1C(=O)N1CC2CCC(C1)N2Cc1c(-c2ccc(Cl)cc2)nc2ccccn12` [Example 91], in that order: 1350 nM and 89 nM.
As for `O=C(N1CCCCC1)N1C2COCC1CN(Cc1c(-c3ccc(Cl)cc3)nc3ccccn13)C2` [Example 198, (7-{[2-(4-Chlorophenyl)imidazo[1,2-a]pyridin-3-yl]methyl}-3-oxa-7,9-diazabicyclo[3.3.1]non-9-yl)(piperidin-1-yl)methanone], the figures for the IC50 in assay [1] and in assay [2] were 810 nM and 60 nM, respectively.
In the case of `O=C(OC1CCCC1)N1C2COCC1CN(Cc1c(-c3ccc(Cl)cc3)nc3ccccn13)C2` [Example 196, Cyclopentyl 7-{[2-(4-chlorophenyl)imidazo[1,2-a]pyridin-3-yl]methyl}-3-oxa-7,9-diazabicyclo[3.3.1]nonane-9-carboxylate], the IC50 in assay [1] came out at 440 nM; in assay [2], 52 nM.
For the compound `COc1ccc(C)c(C(=O)N2CC3CCC(C2)N3Cc2c(-c3ccc(C(C)C)cc3)nc3ccccn23)n1` [Example 144, (8-{[2-(4-Isopropylphenyl)imidazo[1,2-a]pyridin-3-yl]methyl}-3,8-diazabicyclo[3.2.1]oct-3-yl)(6-methoxy-3-methylpyridin-2-yl)methanone], the IC50 in assay [1] was 180 nM; in assay [2], 27 nM.
For the compound `Cc1csc(C(=O)N2C3CCC2CN(Cc2c(-c4ccc(Cl)cc4)nc4ccccn24)C3)n1` [Example 148, (3-{[2-(4-Chlorophenyl)imidazo[1,2-a]pyridin-3-yl]methyl}-3,8-diazabicyclo[3.2.1]oct-8-yl)(4-methyl-1,3-thiazol-2-yl)methanone], the values for the IC50 in assay [1] and in assay [2] were 23 nM and 2.7 nM, respectively.
For `O=C(Nc1ccccc1F)N1C2CCC1CN(Cc1c(-c3ccc(Cl)cc3)nc3ccccn13)C2` [Example 155, 3-{[2-(4-Chlorophenyl)imidazo[1,2-a]pyridin-3-yl]methyl}-N-(2-fluorophenyl)-3,8-diazabicyclo[3.2.1]octane-8-carboxamide], the figures for the IC50 in assay [1] and in assay [2] were 610 nM and 210 nM, respectively.
On to `O=C(c1cccc(OC(F)(F)F)c1)N1C2COCC1CN(Cc1c(-c3ccc(Cl)cc3)nc3ccccn13)C2` [Example 72], for which the IC50 was 2000 nM in assay [1] and 120 nM in assay [2].
On to `CC(C)(C)OC(=O)N1CC2CCC1CN2Cc1c(-c2ccc(Cl)cc2)nc2ccccn12` (single isomer, unassigned) [Example 16, tert-Butyl 5-{[2-(4-chlorophenyl)imidazo[1,2-a]pyridin-3-yl]methyl}-2,5-diazabicyclo[2.2.2]octane-2-carboxylate], for which the IC50 in assay [1] amounted to 1300 nM; in assay [2], 600 nM.
Take `CCN(C(=O)N1C2COCC1CN(Cc1c(-c3ccc(Cl)cc3)nc3ccccn13)C2)c1ccccc1` [Example 193, 7-{[2-(4-Chlorophenyl)imidazo[1,2-a]pyridin-3-yl]methyl}-N-ethyl-N-phenyl-3-oxa-7,9-diazabicyclo[3.3.1]nonane-9-carboxamide]: the IC50 in assay [1] is 7100 nM; in assay [2] it was 100 nM.
Consider `COc1ccc(Cl)c(C(=O)N2CC3CCC2CN3Cc2c(-c3ccc(Cl)cn3)nc3ccccn23)n1` (single isomer, unassigned) [Example 67], for which the IC50 stood at 990 nM in assay [1] and 220 nM in assay [2].
